Ends that are not written are not given here.
Experiments:
[1] = system: db/db mice; assay: Fed blood glucose in db/db mice (age of 6 weeks); type: in vivo; details: fed conditions, up to 4 weeks, AVE0010 0.05, FGF-21 0.75 mg/kg/day s.c. or combined
Procedure: (§1) Female db/db mice (BKS.Cg-m+/+Leprdb/J, age of 6 weeks) were treated with vehicle (PBS), 0.05 mg·kg^−1·day^−1 AVE0010, 0.75 mg·kg^−1·day^−1 recombinant human FGF-21 (SEQ ID NO: 2) or a combined dose of FGF-21 (SEQ ID NO: 2) and AVE0010 (0.75+0.05 mg·kg^−1·day^−1) subcutaneously once daily. Mice were fed ad libitum. Before the first treatment, after one week and 4 weeks blood glucose and HbA1c were measured under fed conditions. After 21 days of treatment an oral glucose tolerance test (OGTT) was initiated. Fasted mice were orally challenged with 2 g·kg^−1 glucose solution and blood glucose was measured at indicated time points.

[2] = system: db/db mice; assay: Oral glucose tolerance test (OGTT) in db/db mice after 21 days; type: in vivo; details: after 21 days of treatment, 2 g/kg oral glucose, vs vehicle treated obese control
Procedure: as §1

[3] = system: Type 2 diabetic patients; details: doses elevating plasma concentrations to approximately 3-4 fold physiological postprandial levels (Nauck 1997); cited from earlier work

Substance: AVE0010: GLP-1R agonist, SEQ ID NO: 9; sequence identical to lixisenatide SEQ ID NO: 8 [reference compound]
- blood glucose [1]: inhibition of blood glucose increase
- glucose tolerance (OGTT) [2]: small improvement

Substance: GLP-1(7-36 amide): bioactive GLP-1, SEQ ID NO: 4 (HAEGTFTSDVSSYLEGQAAKEFIAWLVKGR-NH2)
- fasting hyperglycaemia [3]: fully normalizes

Substance: GLP-1(7-27): bioactive GLP-1; probably GLP-1(7-37), SEQ ID NO: 3 (HAEGTFTSDVSSYLEGQAAKEFIAWLVKGRG; Fragment of human GLP-1 (7 to 37))
- fasting hyperglycaemia [3]: fully normalizes
